Results taken from patent US20170275270A1, “BENZYL SUBSTITUTED INDAZOLES” (Bayer Pharma Aktiengesellschaft, priority 2014, published 2017).
Values joined by “and” are separate entries in the source; they are usually repeats but may differ in a detail not shown here. Equal values may be shown once. Where a name gives a salt, the structure may show the parent alone.

These compounds were tested against T1, catalytic domain of human Bub1 (amino acids 704-1085) (Homo sapiens, UniProt O43683) (assay: Bub1 kinase assay (TR-FRET)). Settings: 10 μM ATP, read-out: Biological Assay 1: Bub1 kinase assay median IC50.
T1 construct: catalytic domain of human Bub1 (amino acids 704-1085); His6 (N); made in house; host or cells: Hi5 insect cells
Assay type: biochemical
Experimental: To this end, 100-fold concentrated compound solutions (in DMSO) were previously prepared by serial dilution (1:3.4) of 2 mM stocks in a clear low volume 384-well source microtiter plate (Greiner Bio-One, Frickenhausen, Germany), from which 50 nL of compounds were transferred into a black low volume test microtiter plate from the same supplier. […] The resulting mixture (5 μL final volume) was incubated at 22° C. during 60 min., and the reaction was stopped by the addition of 5 μL of an aqueous EDTA-solution (50 mM EDTA, in 100 mM HEPES pH 7.5 and 0.2% (w/v) bovine serum albumin) which also contained the TR-FRET detection reagents (0.2 μM streptavidin-XL665 [Cisbio Bioassays, Codolet, France] and 1 nM anti-phosho-Serine antibody [Merck Millipore, cat. #35-001] and 0.4 nM LANCE EU-W1024 labeled anti-mouse IgG antibody [Perkin-Elmer, product no. AD0077, alternatively a Terbium-cryptate-labeled anti-mouse IgG antibody from Cisbio Bioassays can be used]). The stopped reaction mixture was further incubated 1 h at 22° C. in order to allow the formation of complexes between peptides and detection reagents. Subsequently, the amount of product was evaluated by measurement of the resonance energy transfer from the Eu-chelate-antibody complex recognizing the Phosphoserine residue to the streptavidin-XL665 bound to the biotin moiety of the peptide. […] IC50 values were calculated by fitting the normalized inhibition data to a 4-parameter logistic equation (Minimum, Maximum, IC50, Hill; Y=Max+(Min−Max)/(1+(X/IC50) Hill)).

T1 sequence (O43683 704-1085): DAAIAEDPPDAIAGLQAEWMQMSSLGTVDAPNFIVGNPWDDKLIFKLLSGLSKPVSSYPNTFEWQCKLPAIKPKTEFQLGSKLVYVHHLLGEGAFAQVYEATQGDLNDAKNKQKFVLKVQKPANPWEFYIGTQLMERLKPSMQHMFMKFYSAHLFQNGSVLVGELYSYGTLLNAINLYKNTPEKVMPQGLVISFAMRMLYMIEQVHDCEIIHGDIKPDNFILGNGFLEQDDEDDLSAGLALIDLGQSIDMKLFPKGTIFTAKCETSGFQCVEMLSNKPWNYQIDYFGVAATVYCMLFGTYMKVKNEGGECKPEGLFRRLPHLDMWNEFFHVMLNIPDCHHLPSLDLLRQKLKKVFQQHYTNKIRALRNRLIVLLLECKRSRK

Structure (SMILES) | IC50
COCCOc1cc(F)c(Cn2nc(-c3nc(Nc4ccncc4OC)cc(C(C)C)n3)c3ccccc32)c(F)c1 [Example 2-12-73, 2-{1-[2,6-difluoro-4-(2-methoxyethoxy)benzyl]-1H-indazol-3-yl}-6-isopropyl-N-(3-methoxypyridin-4-yl)pyrimidin-4-amine] | 15 nM
CCOc1cc(F)c(Cn2nc(-c3nc(C)cc(Nc4ccncc4O)n3)c3ccccc32)c(F)c1 [Example 2-12-80, 4-({2-[1-(4-ethoxy-2,6-difluorobenzyl)-1H-indazol-3-yl]-6-methylpyrimidin-4-yl}amino)pyridin-3-ol] | 51 nM
CCOc1cc(F)c(Cn2nc(-c3ncc(CCN)c(Nc4ccnc(C)c4)n3)c3ccccc32)c(F)c1 [Example 2-9-12, 5-(2-aminoethyl)-2-[1-(4-ethoxy-2,6-difluorobenzyl)-1H-indazol-3-yl]-N-(2-methylpyridin-4-yl)pyrimidin-4-amine, salt with hydrochloric acid] | 4.3 nM
CCOc1cc(F)c(Cn2nc(-c3ncc(CCN)c(Nc4ccncc4Cl)n3)c3ccccc32)c(F)c1 [Example 2-9-21, 5-(2-aminoethyl)-N-(3-chloropyridin-4-yl)-2-[1-(4-ethoxy-2,6-difluorobenzyl)-1H-indazol-3-yl]pyrimidin-4-amine] | 13 nM
CCOc1cc(F)c(Cn2nc(-c3ncc(CCN)c(Nc4ccnc(C)n4)n3)c3ccccc32)c(F)c1 [Example 2-9-22, 5-(2-aminoethyl)-2-[1-(4-ethoxy-2,6-difluorobenzyl)-1H-indazol-3-yl]-N-(2-methylpyrimidin-4-yl)pyrimidin-4-amine, salt with hydrochloric acid (1:2)] | 9.3 nM

Same assay, conditions: Biological Assay 1: Bub1 kinase assay median IC50, 10 μM ATP

Structure (SMILES) | IC50
CCOc1cc(F)c(Cn2nc(-c3nc4c(c(Nc5ccncc5)n3)CNCC4)c3ccccc32)c(F)c1 [Example 2-9-16, 2-[1-(4-ethoxy-2,6-difluorobenzyl)-1H-indazol-3-yl]-N-(pyridin-4-yl)-5,6,7,8-tetrahydro-pyrido[4,3-d]pyr-imidin-4-amine] | 16 nM
COCCOc1cc(F)c(Cn2nc(-c3ncc(C4CCNCC4)c(Nc4ccncc4Cl)n3)c3ccccc32)c(F)c1 [Example 2-17-9, N-(3-chloropyridin-4-yl)-2-{1-[2,6-difluoro-4-(2-methoxyethoxy)benzyl]-1H-indazol-3-yl}-5-(piperidin-4-yl)pyrimidin-4-amine] | 7.5 nM
Oc1cc(F)c(Cn2nc(-c3nc4c(c(Nc5ccncn5)n3)CCC4)c3ccccc32)c(F)c1 [Example 2-6-11, 3,5-difluoro-4-({3-[4-(pyrimidin-4-ylamino)-6,7-dihydro-5H-cyclopenta[d]pyrimidin-2-yl]-1H-indazol-1-yl}methyl)phenol] | 14 nM
CCOc1cc(F)c(Cn2nc(-c3nc(Nc4ccnc(C)n4)cc(-c4nccs4)n3)c3ccccc32)c(F)c1 [Example 2-12-96, 2-[1-(4-ethoxy-2,6-difluorobenzyl)-1H-indazol-3-yl]-N-(2-methylpyrimidin-4-yl)-6-(1,3-thiazol-2-yl)pyrimidin-4-amine] | > 20000 nM and 9200 nM
COc1cnccc1Nc1nc(-c2nn(Cc3c(F)cc(OCCO)cc3F)c3ccccc23)nc2c1CCCCC2 [Example 2-6-44, 2-{3,5-difluoro-4-[(3-{4-[(3-methoxypyridin-4-yl)amino]-6,7,8,9-tetrahydro-5H-cyclohepta[d]pyrimidin-2-yl}-1H-indazol-1-yl)methyl]phenoxy}ethanol] | 12 nM
COCCOc1cc(F)c(Cn2nc(-c3ncc(C4CCN(CC(F)(F)F)CC4)c(Nc4ccncc4Cl)n3)c3ccccc32)c(F)c1 [Example 2-20-8, N-(3-chloropyridin-4-yl)-2-{1-[2,6-difluoro-4-(2-methoxyethoxy)benzyl]-1H-indazol-3-yl}-5-[1-(2,2,2-trifluoroethyl)piperidin-4-yl]pyrimidin-4-amine] | > 20000 nM
COCCOc1cc(F)c(Cn2nc(-c3nc4c(c(Nc5ccncc5OC)n3)COCC4)c3ccccc32)c(F)c1 [Example 2-12-99, 2-{1-[2,6-difluoro-4-(2-methoxyethoxy)benzyl]-1H-indazol-3-yl}-N-(3-methoxypyridin-4-yl)-7,8-dihydro-5H-pyrano[4,3-d]pyrimidin-4-amin] | 26 nM
COCCOc1cc(F)c(Cn2nc(-c3nc4c(c(Nc5ccncn5)n3)CNC4)c3ccccc32)c(F)c1 [Example 2-9-27, 2-{1-[2,6-difluoro-4-(2-methoxy-ethoxy)benzyl]-1H-indazol-3-yl}-N-(pyrimidin-4-yl)-6,7-dihydro-5H-pyrrolo[3,4-d]pyr-imidin-4-amine, salt with hydrochloric acid] | 20 nM
COCCOc1cc(F)c(Cn2nc(-c3nc4c(c(Nc5ccncn5)n3)CCC4)c3ccccc32)c(F)c1 [Example 2-12-56, 2-{1-[2,6-difluoro-4-(2-methoxyethoxy)benzyl]-1H-indazol-3-yl}-N-(pyrimidin-4-yl)-6,7-dihydro-5H-cyclopenta[d]pyrimidin-4-amine] | 7 nM
COCCOc1cc(F)c(Cn2nc(-c3nc4c(c(Nc5ccnc(C)n5)n3)CN(CC(F)(F)F)C4)c3ccccc32)c(F)c1 [Example 2-20-16, 2-{1-[2,6-difluoro-4-(2-methoxyethoxy)benzyl]-1H-indazol-3-yl}-N-(2-methylpyrimidin-4-yl)-6-(2,2,2-trifluoroethyl)-6,7-dihydro-5H-pyrrolo[3,4-d]pyrimidin-4-amine] | 120 nM
Nc1cc(Nc2nc(-c3nn(Cc4c(F)cc(OCCO)cc4F)c4ccccc34)nc3c2CCC3)ccn1 [Example 2-4-7, 2-{4-[(3-{4-[(2-aminopyridin-4-yl)amino]-6,7-dihydro-5H-cyclopenta[d]pyrimidin-2-yl}-1H-indazol-1-yl)methyl]-3,5-difluorophenoxy}ethanol] | 9.7 nM
CCOc1cc(F)c(Cn2nc(-c3ncc(CCNCC(F)(F)F)c(Nc4ccnc(NC(C)=O)c4)n3)c3ccccc32)c(F)c1 [Example 2-20-15, N-{4-[(2-[1-(4-ethoxy-2,6-difluorobenzyl)-1H-indazol-3-yl]-5-{2-[(2,2,2-trifluoroethyl)amino]ethyl}pyrimidin-4-yl)amino]pyridin-2-yl}acetamide] | 22 nM
COCCOc1cc(F)c(Cn2nc(-c3nc(CN4CCOCC4)cc(Nc4ccncc4Cl)n3)c3ccccc32)c(F)c1 [Example 2-12-40, N-(3-chloropyridin-4-yl)-2-{1-[2,6-difluoro-4-(2-methoxyethoxy)benzyl]-1H-indazol-3-yl}-6-(morpholin-4-ylmethyl)pyrimidin-4-amine] | 10 nM
CCOc1cc(F)c(Cn2nc(-c3nc4c(c(Nc5ccncc5C)n3)COC4)c3ccccc32)c(F)c1 [Example 2-19-18, 2-[1-(4-ethoxy-2,6-difluorobenzyl)-1H-indazol-3-yl]-N-(3-methylpyridin-4-yl)-5,7-dihydrofuro[3,4-d]pyrimidin-4-amine] | 84 nM
CCOc1cc(F)c(Cn2nc(-c3nc(Nc4ccnc(NC(C)=O)c4)cc(C4CCOCC4)n3)c3ccccc32)c(F)c1 [Example 2-12-90, N-[4-({2-[1-(4-ethoxy-2,6-difluorobenzyl)-1H-indazol-3-yl]-6-(tetrahydro-2H-pyran-4-yl)pyrimidin-4-yl}amino)pyridin-2-yl]acetamide] | 11 nM
CCOc1cc(F)c(Cn2nc(-c3nc4c(c(Nc5ccnc(C)c5)n3)CS(=O)(=O)C4)c3ccccc32)c(F)c1 [Example 2-19-5, 2-[1-(4-ethoxy-2,6-difluorobenzyl)-1H-indazol-3-yl]-N-(2-methylpyridin-4-yl)-5,7-dihydrothieno[3,4-d]pyrimidin-4-amine 6,6-dioxide] | 140 nM
COc1ccc(Cn2nc(-c3nc(C)c(F)c(Nc4ccncc4)n3)c3ccccc32)cc1 [Example 2-12-24, 5-fluoro-2-[1-(4-methoxybenzyl)-1H-indazol-3-yl]-6-methyl-N-(pyridin-4-yl)-pyrimidin-4-amine] | 55 nM
COCCOc1cc(F)c(Cn2nc(-c3ncc(C4CC4)c(Nc4ccncc4OC)n3)c3ccccc32)c(F)c1 [Example 2-2-48, 5-cyclopropyl-2-{1-[2,6-difluoro-4-(2-methoxyethoxy)benzyl]-1H-indazol-3-yl}-N-(3-methoxypyridin-4-yl)pyrimidin-4-amine] | 3.7 nM
CCOc1cc(F)c(Cn2nc(-c3ncc(CCCOC)c(Nc4ccncc4C(=O)O)n3)c3ccccc32)c(F)c1 [Example 2-2-10, 4-({2-[1-(4-ethoxy-2,6-difluorobenzyl)-1H-indazol-3-yl]-5-(3-methoxypropyl)pyrimidin-4-yl}amino)nicotinic acid] | 20 nM
CCOc1cc(F)c(Cn2nc(-c3nc(Nc4ccnc(NC(C)=O)c4)cc([C@H](C)O)n3)c3ccccc32)c(F)c1 [Example 2-4-9, N-[4-({2-[1-(4-ethoxy-2,6-difluorobenzyl)-1H-indazol-3-yl]-6-[(1S)-1-hydroxyethyl]pyrimidin-4-yl}amino)pyridin-2-yl]acetamide] | 11 nM
COCCOc1cc(F)c(Cn2nc(-c3nc(C)c(F)c(Nc4ccnc(C)n4)n3)c3ccccc32)c(F)c1 [Example 2-12-75, 2-{1-[2,6-difluoro-4-(2-methoxyethoxy)benzyl]-1H-indazol-3-yl}-5-fluoro-6-methyl-N-(2-methylpyrimidin-4-yl)pyrimidin-4-amine] | 180 nM
